Reference: patent US12570704B2, “Functionally modified maytansinoids and compositions and methods of use thereof” (University of Georgia Research Foundation, Inc., priority 2019, dated 2026)
Non-standard residues stand in square brackets, D forms with d. Residues, ends and D or L forms follow the SMILES beside them. ξ: configuration not given here. ξGly(4-Pip(1-amidino)) = N=C(N)N1CCC(C(N)C(=O)O)CC1; ξGly(piperidin-4-yl) = NC(C(=O)O)C1CCNCC1; ξTle = CC(C)(C)C(N)C(=O)O; ξP = O=C(O)C1CCCN1; ξC = NC(CS)C(=O)O

Key:
NTSR1 = NTSR1 (Homo sapiens, UniProt P30989); settings: compared to wildtype NTS; cited from earlier work
Chain of NTSR1 (P30989 whole entry): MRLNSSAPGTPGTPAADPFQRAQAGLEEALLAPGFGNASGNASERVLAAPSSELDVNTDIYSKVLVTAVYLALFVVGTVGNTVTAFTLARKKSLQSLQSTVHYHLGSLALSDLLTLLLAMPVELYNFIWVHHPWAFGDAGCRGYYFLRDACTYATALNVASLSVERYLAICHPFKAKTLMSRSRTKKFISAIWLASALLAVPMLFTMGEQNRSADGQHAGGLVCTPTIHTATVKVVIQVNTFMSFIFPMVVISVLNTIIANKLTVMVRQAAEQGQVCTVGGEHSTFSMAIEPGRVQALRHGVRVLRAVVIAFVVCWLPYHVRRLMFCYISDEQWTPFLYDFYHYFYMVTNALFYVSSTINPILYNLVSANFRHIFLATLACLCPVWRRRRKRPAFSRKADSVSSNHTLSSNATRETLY

[1] = compared to wildtype NTS; cited from earlier work
H1299 cells [2] = assay: Clonogenic assay with X-ray irradiation, linear-quadratic model; format: cell-based, human; settings: 20 nM, 12 h, X-rays 0-10 Gy
Experimental: Around 3×10^5 of H1299 cells were plated in a series of 25 mm petri dishes in 5 mL of complete RMPI-1640 medium, and the cells were incubated for 24 h at 37° C. Once the cells were completely adhered to the bottom of the plate, the media was replaced with fresh RPMI-1640 containing DM1 or DM1-NO with a final concentration of 20 nM. After another 12 h of incubation, the cell cultures were irradiated by X-rays (320 kV) of different doses Immediately following the X-ray irradiation, the cell monolayers were trypsinized using 0.05% Trypsin/EDTA (Gibco, Life Technologies, USA). Single cells were collected and plated onto a 25 mm petri dish in 5 mL complete media (FIG. 1K). Each dish was then incubated for 21 days to allow colonies to form. After that, the media was removed and 0.5% crystal violet in 70% methanol was used to fixed and stain the existing colonies. The plates were sufficiently and carefully rinsed, and were dried at room temperature. Once dried, the colonies were counted manually under a microscope. When observed under the microscope, colonies of […] were said to be surviving colonies. The survival rate of these colonies was normalized to the plating efficiency of the untreated control cells. The mean and standard deviation of surviving colonies in each treatment group was calculated.
The potential of DM1-NO as a radiosensitizer was assessed by clonogenic assays. Briefly, DM1 or DM1-NO was incubated with H1299 cells, the cells were irradiated with X-rays (0-10 Gy), and the resulting cells were seeded onto a petri dish (FIG. 1K). Colonies consisting more than 50 cells after 3 weeks were counted, and the data fit to a linear-quadratic model (Table 3).

H1299 cells [3] = assay: MTT cell viability assay, 72 h, without RT; format: cell-based, human
Experimental: The viability of the H1299 cells after different treatments was measured by (4,5-dimethythiazon-2-yl)-2,5-diphenyl tetrazolium bromide (MTT) assay using an Infinite M200 microplate reader (BioTek's Synergy™ Mx, USA). Around 3×10^3 cells per well were seeded into a 96-well plate and cultured overnight until the cells fully adhered to the bottom of the plate. The cells were treated with different treatment groups, including free drugs (DM1 and DM1-NO), and drug loaded nanoparticles (DM1-NPs and DM1-NO-NPs) for 72 h. […] After that MTT reagent (in 20 μL PBS, 5 mg/mL) was added to each well. The cells were further incubated for 4 h at 37° C. The medium in each well was then removed and replaced by 100 μL DMSO. The plate was gently shake for 5 min (instrument setup) to dissolve the formazan crystals, and the absorbance at 570 nm was recorded by a microplate reader. Each experiment condition was run three times and the data were shown as the mean value plus a standard deviation (±SD).

H1299 cells [4] = assay: Cell cycle arrest, PI staining and flow cytometry; format: cell-based, human; settings: 20 nM, 24 h; PBS control 17.5%
Experimental: H1299 cells were seeded onto 6-well plates at a density of 2×10^5 cells per well and cultured overnight. The cells were then incubated with 20 nM of free drugs (DM1 and DM1-NO) or drug loaded nanoparticles (DM1-NPs and DM1-NO-NPs) for 24 h, and were then harvested and washed with ice-cold phosphate-buffered saline (PBS) and fixed with cold 70% (vol/vol) ethanol overnight at 4° C. The resulting cells were resuspended in PBS (1×) buffer containing a final concentration of 20 μg/mL RNase A and 20 μg/mL propidium iodide (eBioscience, Invitrogen, USA) for 15 min. The cell cycle profiles were determined using flow cytometry (HyperCyAn, Beckman USA) and analyzed using CellQuest software.

H1299 cells [5] = assay: MTT cell viability assay, 72 h, in the presence of RT; format: cell-based, human; settings: with RT
Experimental: FIGS. 7A-7E are plots showing the results of a cell cycle analysis, based on PI staining and assessed by flow cytometry. H1299 cells were incubated with PBS (7A), DM1 (7B), DM1-NO (7C), DM1-NPs (7D), or DM1-NO-NPs (20 nM, DM1 concentration) (7E) before analysis. […] FIG. 7G is a bar graphs showing Percentage of tubulin inhibition. Tubulin polymer was collected by centrifugation (35000×g for 1 h at 30° C.) and the amount of tubulin protein sediment was quantified by measuring protein concentration. ***, P<0.001. FIG. 7H is a line graph showing cell viability, tested with H1299 cells using 72-h MTT in the presence of RT. DM1, DM1-NO, and DM1-NO-NPs were studied.
The viability of the H1299 cells after different treatments was measured by (4,5-dimethythiazon-2-yl)-2,5-diphenyl tetrazolium bromide (MTT) assay using an Infinite M200 microplate reader (BioTek's Synergy™ Mx, USA). Around 3×10^3 cells per well were seeded into a 96-well plate and cultured overnight until the cells fully adhered to the bottom of the plate. The cells were treated with different treatment groups, including free drugs (DM1 and DM1-NO), and drug loaded nanoparticles (DM1-NPs and DM1-NO-NPs) for 72 h. […] The plate was gently shake for 5 min (instrument setup) to dissolve the formazan crystals, and the absorbance at 570 nm was recorded by a microplate reader. […]

[6] = In vivo toxicity study (hematology, blood biochemistry, liver tissue); parameters: species or system balb/c mice; settings: 260.8 nmol/kg i.v., Day 10
Experimental: Six-week old female albino BALB/c mice were purchased from Charles River Laboratories, USA. The animals were divided into control and experimental groups (n=3) and marked to permit individual identification. A similar dose (260.8 nmol/kg) of DM1-NO-NPs as used in therapeutic study was administered intravenously and the mice were examined for 10 days to observations for abnormal sign of toxicity such as change in behavioral, dizziness, respiratory distress or mortality were conducted until the end of the study. To further evaluate the hepatic function, alanine aminotransferase (ALT) and aspartate aminotransferase (AST) activities were measured and blood chemistry analysis was performed by using 20 μL blood serum sample form • each treated animal to assess the following: white blood cells (WBC), red blood cells (RBC), and platelets (PLT), plateletcrit, (PCT, mean platelet volume or platelet distribution width) and also corresponding sets of electrolytes (sodium, potassium, chloride, bicarbonate, sugar (glucose) calcium, inorganic phosphate, and magnesium, lipids (cholesterol), albumin, and total protein levels were also analyzed. Histological Analysis: […]

Compound	avidity to NTSR1 (NTSR1)	biological stability [1]	D10 (radiation dose at 10% fractional survival) (H1299 cells [2]) [Gy]	α (linear quadratic model best fit value) (H1299 cells [2])	β (linear quadratic model best fit value) (H1299 cells [2])	IC50 (H1299 cells [3]) [nM]	portion of cells in the G2/M phase (H1299 cells [4]) [%]	IC50 (H1299 cells [5]) [nM]	complete blood count: WBC, RBC, PLT, PCT levels [6]
CC(C)C[C@H](NC(=O)C(NC(=O)[C@H](Cc1ccc(O)cc1)NC(=O)C1CCCN1C(=O)[C@H](CCCNC(=N)N)NC(=O)C(NC(=O)C1CCCN1C(=O)C(NC(=O)C(N)CS)C1CCNCC1)C1CCN(C(=N)N)CC1)C(C)(C)C)C(=O)O (stereo partly drawn) [NTSmut] (H-[ξC][ξGly(piperidin-4-yl)][ξP][ξGly(4-Pip(1-amidino))]R[ξP]Y[ξTle]L-OH)	comparable, nanomolar avidity	much greater biological stability	–	–	–	–	–	–	–
COc1cc2cc(c1Cl)N(C)C(=O)C[C@H](OC(=O)[C@H](C)N(C)C(=O)CCS)[C@]1(C)O[C@H]1[C@H](C)[C@@H]1C[C@@](O)(NC(=O)O1)[C@H](OC)/C=C/C=C(\C)C2 [DM1, Mertansine, reference compound]	–	–	4.89	0.0729	0.0033	19.8	85.3	17.4	in the normal range
